Data reported in patent publication US20230203016A1, “DICARBOXYLIC ACID BISAMIDE DERIVATIVES, USE THEREOF, PHARMACEUTICAL COMPOSITION BASED THEREON AND METHODS FOR PRODUCING DICARBOXYLIC ACID BISAMIDE DERIVATIVES” (TREAMID THERAPEUTICS GMBH, priority 2013, published 2023).

What was measured:
[1] = Stability constants of complexes with zinc ions by pH-metric titration, Bjerrum method; type: physicochemical; details: aqueous solution, CL = 0.02M, M^z+/L = 1:6, ion strength 0.5 (KNO3), 22° C.; for The first stability constant, lgK1 (zinc ions) / The second stability constant, lgK2 (zinc ions) / The third stability constant, lgK3 (zinc ions): Table 5; for The first stability constant of complexes with 1:1 compositions, lgK1, Zn (II): Table 4
Description: (§1) Initial 0.05 M solutions of M^z+ metal ions were prepared from nitrates of zinc (Zn(NO3)2·6H2O), calcium (Ca(NO3)2·4H2O), copper sulfate (CuSO4·5H2O), magnesium chloride (MgCl2·6H2O) and Mohr's salt ((NH4)2Fe(SO4)2·6H2O). Standardization of the initial solutions of M^z+ salts was performed by a complexometric titration method with trilon B (M^z+=Zn^2+, Cu^2+, Mg^2+, Ca^2+) and a spectrophotometric method at 490 nm by using o-phenanthroline (M^z+=Fe^2+).
(§2) Given the parameters, such as the amount of a studied compound required for potentiometric titration, a testing procedure and a constant calculation method, the Bjerrum method is most suitable and informative [Yu. P. Galaktionov, M. A. Chistyakov, V. G. Sevastiyanov, etc., “Step Stability Constants of Group IIIB Metal and Lanthanide Complexes with Acetylacetone in Aqueous Solution and the Solubility Products of Metal Triacetylacctonates”, Journal of physical chemistry, 2004, v. 78, No. 9, pp. 1596-1604].
(§3) The method is based on the view that the process of complex formation is stepwise. A main assumption of the Bjerrum method is an assumption about the formation of only […] complexes. The process of complex formation can be schematically described as follows:
(§4) According to the Bjerrum method, a studied compound is titrated with a NaOH solution twice: in the absence of and in the presence of a metal ion. The titration is performed under a high constant concentration of an indifferent electrolyte, which provides the solution with a constant ionic strength.
(§5) For these purposes, highly soluble salts are used, for example, sodium and potassium salts. Concentration step stability constants (Kn) are determined from experiments. In addition, the method provides information concerning the composition of a formed complex, in particular, the maximum possible number of bound ligands (n).
(§6) Traditional procedure for determining step stability constants for complexes by the Bjerrum method of pH-metric titration was performed as follows.
(§7) A sample of a studies compound (3·10^−4 mol) was dissolved in 14.0 ml of a 0.5M aqueous KNO3 solution. One ml of a 0.05M aqueous solution of an M^z+ salt was added under vigorous stirring. The systems were studied with a M^z+/L ratio of 1:6. The pH value of a solution was fixed for coexisting ligands and metal ions. The mixture was titrated with a 0.05M NaOH aqueous solution within a broad range of pH values (up to pH 11.0-11.5). The amount of the used titrant (VNaOH, ml) and the pH value of the solution were registered in each titration point. At the moment when a residue formed, the solution became turbid, or the color of the solution changed, the pH value, the nature of the change and the amount of NaOH spent for the titration were registered. The step of titration was 0.25 ml. The value of lgKn was determined by the Bjerrum curve n=f(pA) for each semi-integer value of the function of complex formation n=n−0.5.
Today the Bjerrum method is frequently used to study complex formation processes. This method provides for the determination of two parameters: the concentration of a free ligand under equilibrium conditions ([L^−]) and the function of complex formation n which is the average number of ligands involved in the complex. Thus, using experimental data, the value [L^−] can be calculated for each time point of the titration (in particular, −lg[L^−]=pA), and n can be calculated by equation (1). When a ligand has several dissociating groups, the KL value in equation (1) matches the value of the dissociation constant with the largest pk value.
The Kn value is found from the Bjerrum curve (curve of the complex formation) n=f(pA) plotted according to equation (2) for each semi-integer value (n=n−0.5) of the function of the complex formation. Thus, the step stability constant will be equal to the reciprocal concentration of a free ligand at a point of n=n−0.5. […]

[2] = First stability constant of complexes with Fe (II) by pH-metric titration, Bjerrum method; type: physicochemical; details: aqueous solution, CL = 0.02M; M^z+/L = 1:6; ion strength 0.5 (KNO3), 22° C.
Description: as §1, §2, §3, §4, §5, §6
(§8) A sample of a studies compound (3·10^−4 mol) was dissolved in 14.0 ml of a 0.5M aqueous KNO3 solution. One ml of a 0.05M aqueous solution of an M^z+ salt was added under vigorous stirring. The systems were studied with a M^z+/L ratio of 1:6. The pH value of a solution was fixed for coexisting ligands and metal ions. […] The value of lgKn was determined by the Bjerrum curve n=f(pA) for each semi-integer value of the function of complex formation n=n−0.5.
(§9) Today the Bjerrum method is frequently used to study complex formation processes. […] Thus, using experimental data, the value [L^−] can be calculated for each time point of the titration (in particular, −lg[L^−]=pA), and n can be calculated by equation (1). […]

[3] = First stability constant of complexes with calcium ions by pH-metric titration, Bjerrum method; type: physicochemical; details: aqueous solution, CL = 0.02M; M^z+/L = 1:6; ion strength 0.5 (KNO3), 22° C.
Description: as §1, §2, §3
According to the Bjerrum method, a studied compound is titrated with a NaOH solution twice: in the absence of and in the presence of a metal ion. […]
For these purposes, highly soluble salts are used, for example, sodium and potassium salts. Concentration step stability constants (Kn) are determined from experiments. […]
A sample of a studies compound (3·10^−4 mol) was dissolved in 14.0 ml of a 0.5M aqueous KNO3 solution. […] The value of lgKn was determined by the Bjerrum curve n=f(pA) for each semi-integer value of the function of complex formation n=n−0.5.
as §9

[4] = First stability constant of complexes with magnesium ions by pH-metric titration, Bjerrum method; type: physicochemical; details: aqueous solution, CL = 0.02M; M^z+/L = 1:6; ion strength 0.5 (KNO3), 22° C.
Description: as §1, §2, §3, §4, §5, §6, §8, §9

[5] = First stability constant of complexes with Fe (III) by pH-metric titration, Bjerrum method; type: physicochemical; details: aqueous solution, CL = 0.02M; M^z+/L = 1:6; ion strength 0.5 (KNO3), 22° C.
From the text: as §2, §3, §4, §5, §6, §7, §9

[6] = Acid dissociation constants (pk) by pH-potentiometric titration, Schwarzenbach method; type: physicochemical; details: aqueous solution, C = 0.02M, ionic strength 0.5 (KNO3), 22° C.; for pk1: titration with 0.05M HCl aqueous solution (footnote 1); for pk2: titration with 0.05M aqueous NaOH solution (footnote 2)
Description: An important property of a ligand to form a complex is dissociation constants (pkn) of studied compounds in an aqueous solution. The pkn values are determined by a potentiometric titration method. The calculation of dissociation constants are performed by the Schwarzenbach method [Grinberg A. A., “An introduction to the chemistry of complex compounds”, fourth ed., Amend., L., Khimiya, 1971].
Titration was performed on an apparatus by using a laboratory ionomer I 120.1. A designed galvanic cell consisted of two electrodes, in particular an indicator glass electrode and a silver chloride comparison electrode. The pH value was measured with an accuracy of ±0.2.
A traditional method for determining acid dissociation step constants (k1, . . . , kn) by using pH-metric titration is the Schwarzenbach method.
A sample of a studied compound (3·10^−4 mol) was dissolved in 15.0 ml of a 0.5M aqueous KNO3 solution. The obtained […] solution was titrated with a 0.05M aqueous solution of NaOH or HCl under stirring. The amount (V, ml) of the used titrant and the pH value of the solution were registered in each titration point. A titration step was equal to 0.5 ml, and 0.2 ml in the proximity to the equivalency point. Titration was continued until the pH value of the solution reached 11.0 to 11.5. The pH value of the solution corresponding to a=0.5 and/or a=1.5 was determined by the titration curve pH=f(a), and the amount of added gram-equivalents of the titrant was calculated in terms of 1 mole of a titrated compound.

[7] = First stability constant of complexes with copper ions by pH-metric titration, Bjerrum method; type: physicochemical; details: aqueous solution, CL = 0.02M; M^z+/L = 1:6; ion strength 0.5 (KNO3), 22° C.
Description: as §1, §2, §3, §4, §5, §6, §8, §9

[8] = Study of the chelating ability (summary statements on complex formation); type: physicochemical; details: statement in words

Row | Compound | The first stability constant, lgK1 (zinc ions) [1] | The second stability constant, lgK2 (zinc ions) [1] | The third stability constant, lgK3 (zinc ions) [1] | The first stability constant of complexes with 1:1 compositions, lgK1, Fe (II) [2] | The first stability constant of complexes with 1:1 compositions, lgK1, Ca (II) [3] | The first stability constant of complexes with 1:1 compositions, lgK1, Zn (II) [1] | The first stability constant of complexes with 1:1 compositions, lgK1, Mg (II) [4] | The first stability constant of complexes with 1:1 compositions, lgK1, Fe (III) [5] | pk1 [6] | pk2 [6] | The first stability constant of complexes with 1:1 compositions, lgK1, Cu (II) [7] | melting point [°C] | ability to form complexes with or chelate metal ions [8]
1 | O=C(NCCc1cnc[nH]1)C(=O)NCCc1cnc[nH]1 [Compound 1, N,N′-bis-[2-(1H-imidazol-4-yl)ethyl]ethanediamide] | 4.52 | 4.21 | 3.75 | – | – | – | – | – | – | – | – | – | –
2 | O=C(CC(=O)NCCc1cnc[nH]1)NCCc1cnc[nH]1 [Compound 2, N,N′-bis-[2-(1H-imidazol-4-yl)ethyl]propanediamide] | 4.84 | 4.50 | 2.60 | 5.08 | 2.06 | 4.84 | 2.59 | 5.29 | 7.11^(1) | 11.27^(2) | 4.17 | – | –
3 | O=C(CCC(=O)NCCc1cnc[nH]1)NCCc1cnc[nH]1 [Compound 3, N,N′-bis-[2-(1H-imidazol-4-yl)ethyl]butanediamide] | 5.40 | 5.05 | 3.80 | 5.95 | 4.57 | 5.40 | 4.36 | 6.59 | 6.88 | 11.27^(2) | 5.32 | 230 to 231 | –
4 | O=C(NCCc1c[nH]cn1)c1cccc(C(=O)NCCc2c[nH]cn2)c1 [Compound 6, Bis-1,3-(N^β-histaminyl)isophthalic acid] | 5.62 | 5.15 | 4.04 | – | – | – | – | – | – | – | – | – | –
5 | O=C(CCCC(=O)NCCc1nccs1)NCCc1nccs1 [Compound 8] | 6.25 | 5.80 | 5.05 | – | – | – | – | – | – | – | – | – | –
6 | O=C(CCCC(=O)NCCc1ncc[nH]1)NCCc1ncc[nH]1 [Compound 10] | 5.50 | 5.24 | 4.48 | – | – | – | – | – | – | – | – | – | –
7 | O=C(CCCC(=O)NCCc1cnc[nH]1)NCCc1cnc[nH]1 [Compound 11, N,N′-bis-[2-(1H-imidazol-4-yl)ethyl]pentanediamide] | 5.05 | 4.70 | 2.87 | 6.27 | – | 5.05 | 2.82 | 6.60 | 7.16^(1) | 11.89^(2) | 4.39 | 166 to 168 | capable of forming complexes with metal ions
8 | O=C(CCCCC(=O)NCCc1cnc[nH]1)NCCc1cnc[nH]1 [Compound 12, N,N′-bis-[2-(1H-imidazol-4-yl)ethyl]hexanediamide] | 5.46 | 5.03 | 3.38 | 6.40 | 3.60 | 5.46 | 3.72 | 6.10 | 7.13^(1) | 11.95^(2) | 4.62 | 184 to 186 | –
